Measured values from patent US10781203B2, “Nontoxic compounds for the treatment and prevention of herpesvirus infections” (The Penn State Research Foundation, priority 2016, dated 2020).
pEC50, pIC50: −log10 of the molar value. Each block holds one molecule with its values, some of them ahead of it.

Key:
MCMV = experiment: Viral titers of MCMV-infected fibroblasts; type: cell-based, mouse; conditions: 6 dpi (FIG. 12A)
Description: FIG. 7A is a graph showing viral titers at 15 dpi of fibroblasts infected with various strains of HCMV (MOI=0.05) and treated with DMSO or Retro94 at 2 hpi. Media was changed and fresh Retro94 was added at 6 dpi. Bright field images representing CPE of above infections shown at right. FIG. 7B show HCMV-infected ARPE-19 cells (TB40, MOI=3) at 21 dpi treated with DMSO or Retro94 ([…]). Infected cells detected by monitoring mCherry (red) expressed by TB40 virus. Scale bars: 1 mm. The table below images show number of foci detected, average area and standard error of the mean. P<0.00001. […]
For MCMV growth curve analysis, samples were titrated on NIH 3T3 cells and titers were calculated using the 50% tissue culture infective dose method. Both HCMV virus stocks and samples for growth curves were titrated by serial dilutions on MRC5 cells and quantified by the immunological detection of immediate-early proteins as previously described (Britt W J. Human cytomegalovirus: propagation, quantification, and storage. Curr Protoc Microbiol. 2010; Chapter 14: Unit 14E.3). The numbers of stained nuclei were acquired on a Nikon Eclipse Ti Inverted microscope and fluorescent nuclei were quantified using the NIS Elements Software. […] The number and size of foci were quantified using NIS Elements software.

[1] = test system: range of viruses from diverse families; experiment: EC50 against non-herpesviruses; type: cell-based; conditions: FIG. 11A
From the text: (§1) FIG. 11A provides a table showing EC50 values of Retro94F against a range of viruses from diverse families. […] Samples were harvested at 24, 48 and 72 hpi. Data shown is from one independent replicates.

KSHV = experiment: EC50 against other herpesviruses: KSHV; type: cell-based; conditions: below the lowest concentration tested (FIG. 10B)
From the text: (§2) FIGS. 10A-10B show data to provide support for Retro94 and derivatives being effective against other herpesviruses. […] Samples were harvested at 24 hpi. Representative data shown are from independent replicates. FIG. 10B provides a table showing low nanomolar EC50 values of Retro94F against other herpesviruses.

Zika virus = experiment: Growth curve analysis of Zika virus; type: cell-based; conditions: MOI=5; 24, 48 and 72 hpi
From the text: as §1

mouse polyomavirus = experiment: Immune response of mice challenged with mouse polyomavirus; type: in vivo, B6 mice
From the text: (A-E) B6 mice were infected via hind footpads with 2×10^5 PFU of MuPyV. FIGS. 14A and 14B show the results of the percent of immune cell populations in the spleen (FIG. 14A) and kidney (FIG. 14B) analyzed at day 8 post infection between vehicle- or Retro94F-treated mice. […] FIGS. 14D-14E show the phenotype of MuPyV-specific CD8 T cells, analyzed at day 8 or day 30 post infection. KLRG1hi CD127lo (FIG. 14D) cells are short-lived effector cells, while KLRG1lo CD127hi (FIG. 14E) cells are memory-precursor effector cells.
Thus, the inhibitors appear to be well tolerated by mice.

[2] = Tolerability in mice (adverse effects, creatinine, BUN); type: in vivo, C57BL/6 mice
Description: FIGS. 13A-13B provides data to support Retro94F showing no overt toxicity in mice. FIGS. 13A and 13B, Mice were treated with […] Retro-2.1 or vehicle control one hour prior to infection with 2×10^4 PFU MuPyV, then daily until day 4 p.i.
While we obtained good results in tissue culture, developing animal models to test the inhibitors was undertaken to allow for studies to test both the properties of the compounds in a host as well as their efficacy against viruses. […] Thus, at least two mouse infection models in which to show efficacy of the compounds against infection in a host organism is provided. Administration of Retro94F to mice to monitor for potential adverse effects of the compound was undertaken. These initial studies have shown that Retro94F is well tolerated by the mice. For these studies, C57BL/6 mice were injected intraperitoneally once daily with 250 μg of Retro94F or vehicle control in 250 μl of 0.9% saline. […] Thus, the inhibitors appear to be well tolerated by mice.

EBV = experiment: EC50 against other herpesviruses: EBV; type: cell-based; conditions: below the lowest concentration tested (FIG. 10B)
From the text: as §2

HCMV = HCMV single-step growth curve / virus titer analysis (MOI=3); type: cell-based, Human cytomegalovirus (HCMV); conditions: Human betaherpesvirus 5; for pEC50: MOI=3, harvested at 96 hpi (FIG. 9)
Description: Infections were done at an MOI of 0.05 for multi-step growth curves and MOI 3 for single-step growth curves. Infections were done on NHDFs unless otherwise noted. Virus was incubated with cells for 2 hours before addition of fresh media. For growth curve analyses, virus was harvested at the indicated time-points for each experiment by scraping the cells into the medium, sonicating 10 times with 1 second pulses, vortexing for 15 seconds, and centrifuging at 13,000 rpm for 10 min. Supernatants were collected, aliquoted and flash-frozen in liquid nitrogen before storage at −80° C.
For MCMV growth curve analysis, samples were titrated on NIH 3T3 cells and titers were calculated using the 50% tissue culture infective dose method. Both HCMV virus stocks and samples for growth curves were titrated by serial dilutions on MRC5 cells and quantified by the immunological detection of immediate-early proteins as previously described (Britt W J. Human cytomegalovirus: propagation, quantification, and storage. Curr Protoc Microbiol. 2010; Chapter 14: Unit 14E.3). The numbers of stained nuclei were acquired on a Nikon Eclipse Ti Inverted microscope and fluorescent nuclei were quantified using the NIS Elements Software. Images of viral foci from infection of ARPE19 cells were also acquired on Eclipse Ti Inverted microscope. The number and size of foci were quantified using NIS Elements software.
^1H NMR spectra were recorded on a 500 MHz Bruker spectrometer (Billerica, Mass.) using tetramethylsilane (TMS) as the internal reference. The following abbreviations were used to designate chemical shift multiplicities: s=singlet, d=doublet, dd=double doublet, t=triplet, dt=doublet of triplet, m=multiplet. Mass Spec analysis was performed on 4000 Q trap hybrid triple quadrupole/linear ion trap instrument (Applied Biosystems/MDS Sciex) at the proteomic facility at Penn State Hershey Cancer Institute, Hershey, Pa. Thin-layer chromatography (TLC) was on aluminum-supported, precoated silica gel plates (EM Industries, Gibbstown, N.J.). 5-(2-methyl-3-thiazol-4-yl)-2-thiophencarboxaldehyde was purchased from MAYBRIDGE-Thermo Fisher (Cornwall, UK). All other starting materials were obtained from Aldrich Chemical Co. (Milwaukee, Wis.) and used without further purification. Retro94 was added to cells at 2 hpi at a concentration of 10 μM, unless otherwise indicated.

cells = experiment: Cell viability after extended treatment (trypan blue, bright field); type: cell-based; conditions: after 96 hours of treatment
From the text: FIG. 3A is a growth curve analysis of HCMV (MOI=3) in untreated (WT), vehicle treated (DMSO) or Retro94-treated cells. Samples were harvested at 24, 48, 72, 96, 120 and 144 hpi. […] Nuclei labeled with DAPI (blue). Scale bars: 10 μm. FIG. 3C is a growth curve analysis of HCMV (MOI=0.05) in DMSO control (DMSO) or Retro94-treated cells. Samples were harvested at 3, 6, 9, 12 and 15 dpi. Asterisks indicate change of media with fresh Retro94. […] Bright field images of cell monolayers at 4 days post treatment are shown below graph. Brefeldin A was included as a positive control for cell death. Values in FIGS. 3A and 3C are from one representative experiment.
Normal human dermal fibroblasts, HDFs (Cell Applications Inc. 106-05N), and normal human lung fibroblasts, MRC-5 cells (ATCC CCL-171) were maintained in Dulbecco's modified Eagle's medium (DMEM) (Lonza). Human retinal pigmented epithelial cells (ARPE-19), maintained in DMEM/Ham's F12 (1:1 mix) (Lonza), human embryonic lung fibroblasts (HEL) and mouse embryonic fibroblasts (NIH 3T3), maintained in DMEM (Lonza) were obtained (Spector D J, Yetming K. Virology. 2010; 407(2):171-7; Spector D J. Virology. 2015, 476:345-54). All media was supplemented with 10% fetal bovine serum, 100 U/ml penicillin and 100 µg/ml streptomycin, and 2 mM GlutaMAX (Gibco). Cells were maintained at 37° C. with 5% CO2. […]

Compound: Cc1nc(-c2ccc(C3N(C)c4ccc(F)cc4C(=O)N3c3ccccc3)s2)cs1 (centres unmarked) [Retro94F, 6-Fluoro-1-methyl-2-(5-(2-methylthiazol-4-yl)thiophen-2-yl)-3-phenyl-2,3-dihydroquinazolin-4(1H)-one]
inhibition of replication of the mouse equivalent of CMV in culture (MCMV): 99%
EC50 against other viruses [1]: high nanomolar to low micromolar range
EC50 (KSHV) (KSHV): low naonmolar range
inhibition of Zika virus infection (Zika virus): approximately 90%
signs of distress (mouse polyomavirus; challenge with mouse polyomavirus after treatment): no signs of distress
CD8 T cell response to the virus (mouse polyomavirus; day 8 or day 30 post infection): did not alter
levels of immune cells (spleen, kidney) (mouse polyomavirus; day 8 post infection): equivalent levels of immune cells as control treatment
adverse effects ([2]; 250 μg intraperitoneally once daily for 14 straight days): no apparent adverse effects
kidney function (creatinine and BUN levels) ([2]; treated mice, day 4 and day 30 p.i.): did not adversely affect kidney function
EC50 (EBV) (EBV): low naonmolar range
pEC50 (HCMV): ~7.70
pIC50 (HCMV; added at 2 hpi, MOI 3, 96 hpi, read-out: IC50 (HCMV titers)): ~7.82

pEC50 (HCMV): ~7.70
Compound: Cc1nc(-c2ccc(C3N(C)c4ccc([N+](=O)[O-])cc4C(=O)N3c3ccccc3)s2)cs1 (centres unmarked) [DABL-NM, 6-Nitro-1-methyl-2-(5-(2-methylthiazol-4-yl)thiophen-2-yl)-3-phenyl-2,3-dihydroquinazolin-4(1H)-one]

Compound: C[C@H]1CCC/C=C/[C@@H]2C[C@H](O)C[C@H]2[C@H](O)/C=C/C(=O)O1 [Brefeldin A, reference compound]
cells remaining in the monolayer (cells): very few cells in the monolayer remained
